Tested on: mice
Assay: Tail-flick test, blockade of nicotine-induced antinociception
Assay type: in vivo
Protocol: Animals. Male ICR mice (20-25 g) obtained from Harlan Laboratories (Indianapolis, Ind.) were used throughout the study. Animals were housed in groups of six and had free access to food and water. Adult, male Long-Evans rats (350-460 g), obtained from Harlan (Dublin, Va.), were individually housed in a temperature-controlled (20-22° C.) environment with a 12-hour light-dark cycle (lights on at 7 a.m.). Rats were maintained within the indicated weight range by restricted post-session feeding and had ad libitum water in their home cages. Rats were drug-naive at the beginning of the study. Animals were housed in an AALAC approved facility and the study was approved by the Institutional Animal Care and Use Committee of Virginia Commonwealth University.
1. Tail-flick test. Antinociception was assessed by the tail-flick method of D'Amour and Smith (D'Amour and Smith J. P. E. T., 1941, 72:74-79) as modified by Dewey et al. (Dewey et al. J Pharmacol Exp Ther, 1970, 175:435-442). Briefly, mice were lightly restrained while a radiant heat source was shone onto the upper portion of the tail. Latency to remove the tail from the heat source was recorded for each animal. A control response (2-4 seconds) was determined for each mouse before treatment, and a test latency was determined after drug administration. In order to minimize tissue damage, a maximum latency of 10 seconds was imposed. Antinociceptive response was calculated as percent maximum possible effect (% MPE), where % MPE=[(test-control)/(10-control)]×100.
2. Hot-plate Test. […] Two control latencies at least 10 minutes apart were determined for each mouse. […] Antinociceptive response was calculated as percent maximum possible effect (% MPE), where % MPE=[(test-control)/(40-control)×100]. The reaction time was scored when the animal jumped or licked its paws. […]
The doses of nicotine used in the different tests represent approximately an ED84 (Effective dose 84%) which were determined from previous works (Damaj et al. Psychopharmacology (Berl), 1995, 117:67-73). […]

CCCCCCC(=O)OC1CC(C)(C)NC(C)(C)C1 [TMPH, 2,2,6,6-tetramethylpiperidin-4-yl heptanoate]
duration of TMPH effect, tail-flick (TMPH 5 mg/kg s.c., still significantly different from control): at least 4 hours
time at which nicotine's effect started to recover, tail-flick (pretreatment with TMPH 5 mg/kg): ≤ 60 min
antinociception by TMPH itself, tail-flick (s.c. injection, at the indicated doses and times): did not cause antinociception

— patent US7531555B2, “Compositions and methods for selective inhibition of nicotine acetylcholine receptors” (University of Florida Research Foundation, Inc., priority 2003, dated 2009)
